Measured values from publication PMC12454493, “Insight on novel sulfamoylphenyl pyrazole derivatives as anticancer carbonic anhydrase inhibitors” (Molecular Diversity, 2024).
Several values for one entry are separate records, joined by “and”; a condition that tells them apart may be missing. Equal values may be shown once.

Legend:
[1] = tested on: HCT-15; experiment: NCI-60 one-dose SRB screen (Colon Cancer); type: cell-based; conditions: Homo sapiens, single dose 10 µM, 48 h, read-out: Growth inhibition percent (GI %)
Method: (§1) The National Cancer Institute (NCI) Developmental Therapeutic Program (www.dtp.nci.nih.gov) selected the 20 novel synthesized compounds 4a-e, 5a-e, 6a-c, 9a-e, 10 and 11 to test for their anticancer activity at a single dose of 10 µM using SRB assay. […] Supplementary Data S3; Table S1 presents the detailed screening results of the most promising compounds. The preliminary screening’s detailed results for the remaining compounds are elucidated in the (Supplementary Data S3; Table S2).
(§2) The guidelines of the Drug Evaluation Branch’s protocol at the NCI in Bethesda served as the basis for the in vitro anticancer screening assays. at one dose 10 µM against a panel of 60 cancer cell lines. The human tumor cell lines used belonged to nine panels: leukemia, melanoma, lung, colon, CNS, ovarian, renal, prostate and breast cancers using the sulforhodamine B (SRB) assay in a 48 h drug exposure protocol.

[2] = tested on: HCC-2998; experiment: NCI-60 one-dose SRB screen (Colon Cancer); type: cell-based; conditions: Homo sapiens, single dose 10 µM, 48 h, read-out: Growth inhibition percent (GI %)
Method: as §1, §2

[3] = tested on: KM12; experiment: NCI-60 one-dose SRB screen (Colon Cancer); type: cell-based; conditions: Homo sapiens, single dose 10 µM, 48 h, read-out: Growth inhibition percent (GI %)
Method: as §1, §2

[4] = tested on: COLO 205; experiment: NCI-60 one-dose SRB screen (Colon Cancer); type: cell-based; conditions: Homo sapiens, single dose 10 µM, 48 h, read-out: Growth inhibition percent (GI %)
Method: as §1, §2

[5] = tested on: HT29; experiment: NCI-60 one-dose SRB screen (Colon Cancer); type: cell-based; conditions: Homo sapiens, HT-29, single dose 10 µM, 48 h, read-out: Growth inhibition percent (GI %)
Method: as §1, §2

[6] = tested on: SW-620; experiment: NCI-60 one-dose SRB screen (Colon Cancer); type: cell-based; conditions: Homo sapiens, single dose 10 µM, 48 h, read-out: Growth inhibition percent (GI %)
Method: as §1, §2

[7] = tested on: HCT-116; experiment: NCI-60 one-dose SRB screen (Colon Cancer); type: cell-based; conditions: Homo sapiens, single dose 10 µM, 48 h, read-out: Growth inhibition percent (GI %)
Method: as §1, §2

[8] = tested on: SK-MEL-5; experiment: NCI-60 one-dose SRB screen (Melanoma); type: cell-based; conditions: Homo sapiens, single dose 10 µM, 48 h, read-out: Growth inhibition percent (GI %)
Method: as §1, §2

[9] = tested on: MDA-MB-435; experiment: NCI-60 one-dose SRB screen (Melanoma); type: cell-based; conditions: Homo sapiens, single dose 10 µM, 48 h, read-out: Growth inhibition percent (GI %)
Method: as §1, §2

[10] = tested on: SK-MEL-2; experiment: NCI-60 one-dose SRB screen (Melanoma); type: cell-based; conditions: Homo sapiens, single dose 10 µM, 48 h, read-out: Growth inhibition percent (GI %)
Method: as §1, §2

[11] = tested on: UACC-62; experiment: NCI-60 one-dose SRB screen (Melanoma); type: cell-based; conditions: Homo sapiens, single dose 10 µM, 48 h, read-out: Growth inhibition percent (GI %)
Method: as §1, §2

[12] = tested on: MALME-3M; experiment: NCI-60 one-dose SRB screen (Melanoma); type: cell-based; conditions: Homo sapiens, single dose 10 µM, 48 h, read-out: Growth inhibition percent (GI %)
Method: as §1, §2

[13] = tested on: UACC-257; experiment: NCI-60 one-dose SRB screen (Melanoma); type: cell-based; conditions: Homo sapiens, single dose 10 µM, 48 h, read-out: Growth inhibition percent (GI %)
Method: as §1, §2

[14] = tested on: SK-MEL-28; experiment: NCI-60 one-dose SRB screen (Melanoma); type: cell-based; conditions: Homo sapiens, single dose 10 µM, 48 h, read-out: Growth inhibition percent (GI %)
Method: as §1, §2

[15] = tested on: LOX IMVI; experiment: NCI-60 one-dose SRB screen (Melanoma); type: cell-based; conditions: Homo sapiens, single dose 10 µM, 48 h, read-out: Growth inhibition percent (GI %)
Method: as §1, §2

[16] = tested on: M14; experiment: NCI-60 one-dose SRB screen (Melanoma); type: cell-based; conditions: Homo sapiens, single dose 10 µM, 48 h, read-out: Growth inhibition percent (GI %)
Method: as §1, §2

[17] = tested on: NCI-H522; experiment: NCI-60 one-dose SRB screen (Non-Small Cell Lung Cancer); type: cell-based; conditions: Homo sapiens, single dose 10 µM, 48 h, read-out: Growth inhibition percent (GI %)
Method: as §1, §2

[18] = tested on: NCI-H226; experiment: as above; type: cell-based; conditions: Homo sapiens, single dose 10 µM, 48 h, read-out: Growth inhibition percent (GI %)
Method: as §1, §2

[19] = tested on: HOP-62; experiment: as above; type: cell-based; conditions: Homo sapiens, single dose 10 µM, 48 h, read-out: Growth inhibition percent (GI %)
Method: as §1, §2

[20] = tested on: NCI-H460; experiment: as above; type: cell-based; conditions: Homo sapiens, single dose 10 µM, 48 h, read-out: Growth inhibition percent (GI %)
Method: as §1, §2

[21] = tested on: NCI-H23; experiment: as above; type: cell-based; conditions: Homo sapiens, single dose 10 µM, 48 h, read-out: Growth inhibition percent (GI %)
Method: as §1, §2

[22] = tested on: NCI-H322M; experiment: as above; type: cell-based; conditions: Homo sapiens, single dose 10 µM, 48 h, read-out: Growth inhibition percent (GI %)
Method: as §1, §2

[23] = tested on: EKVX; experiment: as above; type: cell-based; conditions: Homo sapiens, single dose 10 µM, 48 h, read-out: Growth inhibition percent (GI %)
Method: as §1, §2

[24] = tested on: A549/ATCC; experiment: as above; type: cell-based; conditions: Homo sapiens, single dose 10 µM, 48 h, read-out: Growth inhibition percent (GI %)
Method: as §1, §2

[25] = tested on: OVCAR-4; experiment: NCI-60 one-dose SRB screen (Ovarian cancer); type: cell-based; conditions: Homo sapiens, single dose 10 µM, 48 h, read-out: Growth inhibition percent (GI %)
Method: as §1, §2

[26] = tested on: IGROV1; experiment: NCI-60 one-dose SRB screen (Ovarian cancer); type: cell-based; conditions: Homo sapiens, IGROV-1, single dose 10 µM, 48 h, read-out: Growth inhibition percent (GI %)
Method: as §1, §2

[27] = tested on: NCI/ADR-RES; experiment: NCI-60 one-dose SRB screen (Ovarian cancer); type: cell-based; conditions: Homo sapiens, single dose 10 µM, 48 h, read-out: Growth inhibition percent (GI %)
Method: as §1, §2

[28] = tested on: OVCAR-3; experiment: NCI-60 one-dose SRB screen (Ovarian cancer); type: cell-based; conditions: Homo sapiens, single dose 10 µM, 48 h, read-out: Growth inhibition percent (GI %)
Method: as §1, §2

[29] = tested on: OVCAR-8; experiment: NCI-60 one-dose SRB screen (Ovarian cancer); type: cell-based; conditions: Homo sapiens, single dose 10 µM, 48 h, read-out: Growth inhibition percent (GI %)
Method: as §1, §2

[30] = tested on: OVCAR-5; experiment: NCI-60 one-dose SRB screen (Ovarian cancer); type: cell-based; conditions: Homo sapiens, single dose 10 µM, 48 h, read-out: Growth inhibition percent (GI %)
Method: as §1, §2

[31] = tested on: SK-OV-3; experiment: NCI-60 one-dose SRB screen (Ovarian cancer); type: cell-based; conditions: Homo sapiens, single dose 10 µM, 48 h, read-out: Growth inhibition percent (GI %)
Method: as §1, §2

[32] = tested on: SF-539; experiment: NCI-60 one-dose SRB screen (CNS Cancer); type: cell-based; conditions: Homo sapiens, single dose 10 µM, 48 h, read-out: Growth inhibition percent (GI %)
Method: as §1, §2

[33] = tested on: SNB-75; experiment: NCI-60 one-dose SRB screen (CNS Cancer); type: cell-based; conditions: Homo sapiens, single dose 10 µM, 48 h, read-out: Growth inhibition percent (GI %)
Method: as §1, §2

[34] = tested on: SF-268; experiment: NCI-60 one-dose SRB screen (CNS Cancer); type: cell-based; conditions: Homo sapiens, single dose 10 µM, 48 h, read-out: Growth inhibition percent (GI %)
Method: as §1, §2

[35] = tested on: SNB-19; experiment: NCI-60 one-dose SRB screen (CNS Cancer); type: cell-based; conditions: Homo sapiens, single dose 10 µM, 48 h, read-out: Growth inhibition percent (GI %)
Method: as §1, §2

[36] = tested on: U251; experiment: NCI-60 one-dose SRB screen (CNS Cancer); type: cell-based; conditions: Homo sapiens, U-251, single dose 10 µM, 48 h, read-out: Growth inhibition percent (GI %)
Method: as §1, §2

[37] = tested on: SF-295; experiment: NCI-60 one-dose SRB screen (CNS Cancer); type: cell-based; conditions: Homo sapiens, single dose 10 µM, 48 h, read-out: Growth inhibition percent (GI %)
Method: as §1, §2

[38] = target: hCA XII (Homo sapiens, UniProt O43570); experiment: CA inhibitory activity, spectrophotometric p-NPA assay; type: biochemical
hCA XII, sequence (O43570 25-354): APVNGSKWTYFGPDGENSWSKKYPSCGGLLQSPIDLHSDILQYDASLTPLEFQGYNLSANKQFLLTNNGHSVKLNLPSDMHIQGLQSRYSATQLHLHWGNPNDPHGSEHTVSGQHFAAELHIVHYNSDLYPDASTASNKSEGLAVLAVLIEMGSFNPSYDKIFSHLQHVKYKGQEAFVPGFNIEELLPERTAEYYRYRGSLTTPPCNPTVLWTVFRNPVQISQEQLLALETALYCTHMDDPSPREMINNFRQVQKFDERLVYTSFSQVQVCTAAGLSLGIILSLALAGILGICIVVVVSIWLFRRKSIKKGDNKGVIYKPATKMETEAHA

[39] = tested on: MOLT-4; experiment: NCI-60 one-dose SRB screen (Leukemia); type: cell-based; conditions: Homo sapiens, single dose 10 µM, 48 h, read-out: Growth inhibition percent (GI %)
Method: as §1, §2

[40] = tested on: SR; experiment: NCI-60 one-dose SRB screen (Leukemia); type: cell-based; conditions: Homo sapiens, single dose 10 µM, 48 h, read-out: Growth inhibition percent (GI %)
Method: as §1, §2

[41] = tested on: K-562; experiment: NCI-60 one-dose SRB screen (Leukemia); type: cell-based; conditions: Homo sapiens, K562, single dose 10 µM, 48 h, read-out: Growth inhibition percent (GI %)
Method: as §1, §2

[42] = tested on: RPMI-8226; experiment: NCI-60 one-dose SRB screen (Leukemia); type: cell-based; conditions: Homo sapiens, single dose 10 µM, 48 h, read-out: Growth inhibition percent (GI %)
Method: as §1, §2

[43] = tested on: HL-60(TB); experiment: NCI-60 one-dose SRB screen (Leukemia); type: cell-based; conditions: Homo sapiens, single dose 10 µM, 48 h, read-out: Growth inhibition percent (GI %)
Method: as §1, §2

[44] = tested on: CCRF-CEM; experiment: NCI-60 one-dose SRB screen (Leukemia); type: cell-based; conditions: Homo sapiens, single dose 10 µM, 48 h, read-out: Growth inhibition percent (GI %)
Method: as §1, §2

Structure (SMILES): CCOC(=O)c1ccc(NC(=O)COC(=O)c2cn(-c3ccc(S(N)(=O)=O)cc3)nc2-c2ccc(C)cc2)cc1 [Compound 5b, 2-[(4-(Ethoxycarbonyl)phenyl)amino]-2-oxoethyl 1-(4-sulfamoylphenyl)-3-(p-tolyl)-1H-pyrazole-4-carboxylate]
- inhibition at 10 µM [1]: 65.7%
- inhibition at 10 µM [2]: 47%
- inhibition at 10 µM [3]: 70.3%
- inhibition at 10 µM [4]: 42.3%
- inhibition at 10 µM [5]: 64.4%
- inhibition at 10 µM [6]: 37%
- inhibition at 10 µM [7]: 60.7%
- inhibition at 10 µM [8]: 39.3%
- inhibition at 10 µM [9]: 47.3%
- inhibition at 10 µM [10]: 27.9%
- inhibition at 10 µM [11]: 53.4%
- inhibition at 10 µM [12]: 35.5%
- inhibition at 10 µM [13]: 39.1%
- inhibition at 10 µM [14]: 48.2%
- inhibition at 10 µM [15]: 53.6%
- inhibition at 10 µM [16]: 56.9%
- inhibition at 10 µM [17]: 49%
- inhibition at 10 µM [18]: 43%
- inhibition at 10 µM [19]: < 5%
- inhibition at 10 µM [20]: 60.8%
- inhibition at 10 µM [21]: 40.3%
- inhibition at 10 µM [22]: 23.7%
- inhibition at 10 µM [23]: 55.6%
- inhibition at 10 µM [24]: 51.1%
- inhibition at 10 µM [25]: 58.8%
- inhibition at 10 µM [26]: 21.4%
- inhibition at 10 µM [27]: 22.3%
- inhibition at 10 µM [28]: 53.5%
- inhibition at 10 µM [29]: 12.8%
- inhibition at 10 µM [30]: 33.1%
- inhibition at 10 µM [31]: < 5%
- inhibition at 10 µM [32]: 60.9%
- inhibition at 10 µM [33]: 62.9%
- inhibition at 10 µM [34]: 55.4%
- inhibition at 10 µM [35]: 48.4%
- inhibition at 10 µM [36]: 54.1%
- inhibition at 10 µM [37]: 54.8%
- Ki [38]: 106 nM
- IC50 ([38]; p-NPA substrate, pH 7.5, 25 °C, triplicate, read-out: IC50 (µM) ± SD hCA XII): 0.1 µM and 0.106 µM
- inhibition at 10 µM [39]: 83.8%
- inhibition at 10 µM [40]: 73.4%
- inhibition at 10 µM [41]: 74.5%
- inhibition at 10 µM [42]: 64.1%
- inhibition at 10 µM [43]: 70.2%
- inhibition at 10 µM [44]: 75.4%
